Where two headings read alike, the source gives them in different places.
Key:
Format in all cases: cell-based
[1] = test system: HepG2 human hepatocellular carcinoma; assay: MTT cytotoxicity assay, HepG2; settings: 72 hours, read-out: TCS50
From the text: (§1) One of the parameters used as the basis for colorimetric assays is the metabolic activity of viable cells. For example, a microtiter assay which uses the tetrazolium salt MTT is now widely used to quantitate cell proliferation and cytotoxicity [Hajdúch M, Mihál V, Minarík J, Fáber E, Safárová M, Weigl E, Antálek P.: Cytotechnology, 1996, 19, 243-245]. For instance, this assay is used in drug screening programs and in chemosensitivity testing. Because tetrazolium salts are cleaved only by metabolically active cells, these assays exclusively detect viable cells. In the case of the MTT assay, yellow soluble tetrazolium salt is reduced to a coloured water-insoluble formazan salt. After it is solubilized, the formazan formed can easily and rapidly be quantified in a conventional ELISA plate reader at 570 nm (maximum absorbency). The quantity of reduced formazan corresponds to the number of vital cells in the culture.
(§2) Human T-lymphoblastic leukaemia cell line CEM was used for routine screening of these compounds. […] The cells were maintained in Nunc/Corning 80 cm^2 plastic tissue culture flasks and cultured in cell culture medium (DMEM with 5 g/l glucose, 2 mM glutamine, 100 U/ml penicillin, 100 μg/ml streptomycin, 10% foetal calf serum and sodium bicarbonate). Individual compounds were dissolved in 10% dimethylsulfoxide/saline, pH 8.0.
(§3) The cell suspensions that were prepared and diluted according to the particular cell type and the expected target cell density (2.500-30.000 cells per well based on cell growth characteristics) were added by pipette (80 μl) into 96/well microtiter plates. […] Usually, test compounds were evaluated at six 4-fold dilutions. […] The optical density (OD) was measured at 540 nm with the Labsystem iEMS Reader MF(UK). The tumour cell survival (TCS) was calculated using the following equitation: TCS=(ODdrug exposed well/mean ODcontrol wells)×100%. The TCS50 value, the drug concentration lethal to 50% of the tumour cells, was calculated from the obtained dose response curves.

[2] = test system: CEM-VCR bulk human T-lymphoblastic leukemia, vincristin resistant; assay: MTT cytotoxicity assay, CEM-VCR bulk; settings: 72 hours, read-out: TCS50
From the text: as §1, §2, §3

Saos2 human = assay: MTT cytotoxicity assay, Saos2; settings: p53−/−, Rb−/−, 72 hours, read-out: TCS50
From the text: as §1, §2, §3

MEL-3 human melanoma = assay: MTT cytotoxicity assay, MEL-3; settings: 72 hours, read-out: TCS50
From the text: as §1, §2, §3

[3] = test system: CEM-VCR 1/F3 human T-lymphoblastic leukemia, vincristin resistant; assay: MTT cytotoxicity assay, CEM-VCR 1/F3; settings: 72 hours, read-out: TCS50
From the text: as §1, §2, §3

U2OS human osteosarcoma = assay: MTT cytotoxicity assay, U2OS; settings: p53+/−, Rb +/−, 72 hours, read-out: TCS50
From the text: as §1, §2, §3

[4] = test system: NIH3T3 mouse immortalised fibroblasts; assay: MTT cytotoxicity assay, NIH3T3; settings: NIH3T3, mouse immortalised fibroblasts (non-malignant), 72 hours, read-out: TCS50
From the text: as §1, §2, §3

[5] = test system: Human T-lymphoblastic leukaemia cell line CEM; assay: MTT cytotoxicity screening assay, CEM; settings: human T-lymphoblastic leukemia, 72 hours, read-out: TCS50
From the text: as §1, §2
The cell suspensions that were prepared and diluted according to the particular cell type and the expected target cell density (2.500-30.000 cells per well based on cell growth characteristics) were added by pipette (80 μl) into 96/well microtiter plates. Inoculates were allowed a pre-incubation period of 24 hours at 37° C. and 5% CO2 for stabilisation. Four-fold dilutions of the intended test concentration were added at time zero in 20 μl aliquots to the microtiter plate wells. Usually, test compounds were evaluated at six 4-fold dilutions. In routine testing, the highest well concentration was 250 μM, but it may differ, depending on the agent. All drug concentrations were examined in duplicate. Incubations of cells with the test compounds lasted for 72 hours at 37° C., in 5% CO2 atmosphere and 100% humidity. At the end of the incubation period, the cells were assayed by using the MTT assay. Ten microliters of the MTT stock solution were pipetted into each well and incubated further for 1-4 hours. After this incubation period, formazan was solubilized by the addition of 100 μl/well of 10% SDS in water (pH=5.5) followed by further incubation at 37° C. overnight. The optical density (OD) was measured at 540 nm with the Labsystem iEMS Reader MF(UK). The tumour cell survival (TCS) was calculated using the following equitation: TCS=(ODdrug exposed well/mean ODcontrol wells)×100%. The TCS50 value, the drug concentration lethal to 50% of the tumour cells, was calculated from the obtained dose response curves.
To evaluate the anti-cancer activity of betulinines, their cytotoxic activity against CEM cell line was examined using the screening assay. Potent compounds were further tested against a panel of cell lines of different histogenetic and species origin (Table 2).

U87MG human glioblastoma = assay: MTT cytotoxicity assay, U87MG; settings: 72 hours, read-out: TCS50
From the text: as §1, §2, §3

[6] = test system: K562-ARA-C human promyelocytic leukemia, cytarabin resistant; assay: MTT cytotoxicity assay, K562-ARA-C; settings: 72 hours, read-out: TCS50
From the text: as §1, §2, §3

[7] = test system: LNCaP human prostate cancer; assay: MTT cytotoxicity assay, LNCaP; settings: androgen dependent, 72 hours, read-out: TCS50
From the text: as §1, with “culture. […]” for “culture.”
(§4) The cell suspensions that were prepared and diluted according to the particular cell type and the expected target cell density (2.500-30.000 cells per well based on cell growth characteristics) were added by pipette (80 μl) into 96/well microtiter plates. […] Usually, test compounds were evaluated at six 4-fold dilutions. […] The optical density (OD) was measured at 540 nm with the Labsystem iEMS Reader MF(UK). […]

[8] = test system: CEM-VCR 3/D5 human T-lymphoblastic leukemia, vincristin resistant; assay: MTT cytotoxicity assay, CEM-VCR 3/D5; settings: 72 hours, read-out: TCS50
From the text: as §1, §2, §3

[9] = test system: K562-CdA human promyelocytic leukemia, cladrubin resistant; assay: MTT cytotoxicity assay, K562-CdA; settings: 72 hours, read-out: TCS50
From the text: as §1, §2, §3

[10] = test system: MCF-7 human breast cancer; assay: MTT cytotoxicity assay, MCF-7; settings: estrogen dependent, p53+/+, Rb +/+, 72 hours, read-out: TCS50
From the text: as §1, with “culture. […]” for “culture.”
as §4

[11] = test system: MDA-MB-238 human breast cancer; assay: MTT cytotoxicity assay, MDA-MB-238; settings: estrogen independent, p53mut/mut, 72 hours, read-out: TCS50
From the text: as §1, with “culture. […]” for “culture.”
as §4

[12] = test system: K562-FLUD human promyelocytic leukemia, fludarabin resistant; assay: MTT cytotoxicity assay, K562-FLUD; settings: 72 hours, read-out: TCS50
From the text: as §1, §2, §3

[13] = test system: CEM-DNR 1/C2 human T-lymphoblastic leukemia, daunorubicin resistant; assay: MTT cytotoxicity assay, CEM-DNR 1/C2; settings: 72 hours, read-out: TCS50
From the text: as §1, §2, §3

[14] = test system: CEM-DNR bulk human T-lymphoblastic leukemia, daunorubicin resistant; assay: MTT cytotoxicity assay, CEM-DNR bulk; settings: 72 hours, read-out: TCS50
From the text: as §1, §2, §3

[15] = test system: Caco-2 human colon cancer; assay: MTT cytotoxicity assay, Caco-2; settings: 72 hours, read-out: TCS50
From the text: as §1, §2, §3

[16] = test system: B16F mouse melanoma, metastatic cell line; assay: MTT cytotoxicity assay, B16F; settings: 72 hours, read-out: TCS50
From the text: as §1, §2, §3

[17] = test system: B16 mouse melanoma cell line; assay: MTT cytotoxicity assay, B16; settings: 72 hours, read-out: TCS50
From the text: as §1, §2, §3

[18] = test system: A549 human lung adenocarcinoma; assay: MTT cytotoxicity assay, A549; settings: 72 hours, read-out: TCS50
From the text: as §1, with “culture. […]” for “culture.”
as §4

human normal lymphocytes = assay: MTT cytotoxicity assay, normal lymphocytes; settings: human normal lymphocytes (non-malignant), 72 hours, read-out: TCS50
From the text: as §1, §2, §3

[19] = test system: SW620 human colon cancer, metastasis; assay: MTT cytotoxicity assay, SW620; settings: read-out: TCS50
From the text: as §1, §2, §3

[20] = test system: OVCAR-3 human ovarian cancer; assay: MTT cytotoxicity assay, OVCAR-3; settings: 72 hours, read-out: TCS50
From the text: as §1, with “culture. […]” for “culture.”
as §4

[21] = test system: DU145 human prostate cancer; assay: MTT cytotoxicity assay, DU145; settings: androgen independent, Rb−/−, 72 hours, read-out: TCS50
From the text: as §1, with “culture. […]” for “culture.”
as §4

[22] = test system: BT549 human breast cancer; assay: MTT cytotoxicity assay, BT549; settings: 72 hours, read-out: TCS50
From the text: as §1, §2, §3

HT-29 human colon cancer = assay: MTT cytotoxicity assay, HT-29; settings: 72 hours, read-out: TCS50
From the text: as §1, §2, §3

[23] = test system: K562-GEM human promyelocytic leukemia, gemcitabin resistant; assay: MTT cytotoxicity assay, K562-GEM; settings: 72 hours, read-out: TCS50
From the text: as §1, with “culture. […]” for “culture.”
as §4

Molecule	IC50 [1] [µM]	IC50 [2] [µM]	IC50 (Saos2 human; Saos2, human rhabdomyosarcoma) [µM]	IC50 (MEL-3 human melanoma) [µM]	IC50 [3] [µM]	IC50 (U2OS human osteosarcoma) [µM]	IC50 [4] [µM]	IC50 [5] [µM]	IC50 (U87MG human glioblastoma) [µM]	IC50 [6] [µM]	IC50 [7] [µM]	IC50 [8] [µM]	IC50 [9] [µM]	IC50 [12] [µM]	IC50 [13] [µM]	IC50 [14] [µM]	IC50 [15] [µM]	IC50 [16] [µM]	IC50 [17] [µM]	IC50 (HT-29 human colon cancer) [µM]	also measured
COC(=O)C12CCC3(C)C(CCC4C5(C)CCC(OC(C)=O)C(C)(C)C5CCC43C)C1=C(C(C)C)C(=O)C2=O (stereo not drawn) [II.4, methyl 3β-acetoxy-21,22-dioxolup-18-en-28-oate]	5.1	28	7.9	5.9	38	4.3	97	7.2	24	6.4	3.3	13	5.2	4.9	10	5.2	8.1	68	35	5.6	IC50 [10]: 13 µM; IC50 [11]: 3300 nM; IC50 [18]: 6.7 µM; IC50 (human normal lymphocytes): 85 µM; IC50 ([19]; 72 hours): 5.9 µM; IC50 [20]: 4.7 µM; IC50 [21]: 2000 nM; IC50 ([22]; p53mut/mut): 15 µM; IC50 [23]: 5 µM
C=C(C=O)[C@@H]1CC[C@]2(C(=O)O)CC[C@]3(C)[C@H](CC[C@@H]4[C@@]5(C)CC[C@H](O)C(C)(C)[C@@H]5CC[C@]43C)[C@@H]12 [II.14, 3β-hydroxy-30-oxolup-20(29)-en-28-oic acid]	7.1	7	4.8	3.7	5.9	3.9	16	3	8.4	1.6	3.6	7.8	2.1	1.3	1.6	3.3	7.7	12	9.3	4.7	IC50 [10]: 4.3 µM; IC50 [11]: 2400 nM; IC50 [18]: 3.3 µM; IC50 (human normal lymphocytes): 25 µM; IC50 ([19]; 72 hours): 5.9 µM; IC50 [20]: 2.6 µM; IC50 [21]: 2800 nM; IC50 ([22]; p53mut/mut): 6.3 µM; IC50 [23]: 2.4 µM
C=C(C)C1CCC2(C(=O)OC)CCC3(C)C(CCC4C5(C)CCC(OC(=O)OCC(O)CO)C(C)(C)C5CCC43C)C12 (stereo not drawn) [II.45, 17β-methoxycarbonyl-28-norlup-20(29)-en-3β-yl(2,3-dihydroxypropyl)carbonate]	–	–	–	–	–	–	–	13	–	–	–	–	–	–	–	–	–	–	–	–	–
3β-acetoxy-lup-20(29)-en-28-oyl fluoride [II.55]	–	–	–	–	–	–	–	19	–	–	–	–	–	–	–	–	–	–	–	–	–
C=C(C)[C@@H]1CC[C@]2(C(=O)O)CC[C@]3(C)[C@H](CC[C@@H]4[C@@]5(C)CC[C@H](O)C(C)(C)[C@@H]5CC[C@]43C)[C@@H]12 [Betulinic acid, betulinic acid, reference compound]	3.6	69	–	2.7	19	250	250	250	–	250	–	24	250	250	250	250	20	4.6	36	250	IC50 (Saos2 human; SAOS-2, Saos2, human rhabdomyosarcoma): 250 µM; IC50 (U87MG human glioblastoma; U-87 MG): 250 µM; IC50 (human normal lymphocytes; Lymphocyte): 250 µM; IC50 ([19]; SW-620, 72 hours): 250 µM; IC50 ([22]; BT-549, p53mut/mut): 250 µM
